The record followed here is patent publication US20260217698A1 (BEYANG THERAPEUTICS CO., LTD., priority 2022, published 2026).

In one data set the test system is melanin. In words: Binding capacity of compounds to melanin. It counts as in vitro ADME, cuttlefish (Sepia officinalis). Particulars: cuttlefish (Sepia officinalis), melanin suspension (1 mg/mL); 1 mg/mL melanin in PBS pH 7.4, 2 μM compound, 2 h at 37° C.; read-out: Fu % (percentage of free drug). An outline of the steps: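 Compound (2 μM final) incubated with washed Sepia melanin (1 mg/mL, PBS pH 7.4) 2 h at 37° C with shaking; PBS with 0.1% BSA served as blank. Supernatants quantified by LC-MS/MS; bound fraction Fb derived from melanin versus blank concentration.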

Data set [1] is described as follows: Solubility test in buffer, LC-MS. It counts as physicochemical. The settings on record: aqueous buffer, thermodynamic from solid, room temperature, shaking 8 h, pH not given (method: pH 2.0, 6.5, 7.4). The method, boiled down:
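Compound at 2 mg/mL in buffers of pH 2.0, 6.5 and 7.4, sonicated, shaken 8 h at room temperature, then centrifuged at 13,000 rpm. Supernatant quantified by LC-MS against a 3–5 point calibration.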

In the next data set the target is T1, TIE2 (Homo sapiens, UniProt Q02763).
T1 construct: purchased BPS 40270
T1 sequence (Q02763 23-1124): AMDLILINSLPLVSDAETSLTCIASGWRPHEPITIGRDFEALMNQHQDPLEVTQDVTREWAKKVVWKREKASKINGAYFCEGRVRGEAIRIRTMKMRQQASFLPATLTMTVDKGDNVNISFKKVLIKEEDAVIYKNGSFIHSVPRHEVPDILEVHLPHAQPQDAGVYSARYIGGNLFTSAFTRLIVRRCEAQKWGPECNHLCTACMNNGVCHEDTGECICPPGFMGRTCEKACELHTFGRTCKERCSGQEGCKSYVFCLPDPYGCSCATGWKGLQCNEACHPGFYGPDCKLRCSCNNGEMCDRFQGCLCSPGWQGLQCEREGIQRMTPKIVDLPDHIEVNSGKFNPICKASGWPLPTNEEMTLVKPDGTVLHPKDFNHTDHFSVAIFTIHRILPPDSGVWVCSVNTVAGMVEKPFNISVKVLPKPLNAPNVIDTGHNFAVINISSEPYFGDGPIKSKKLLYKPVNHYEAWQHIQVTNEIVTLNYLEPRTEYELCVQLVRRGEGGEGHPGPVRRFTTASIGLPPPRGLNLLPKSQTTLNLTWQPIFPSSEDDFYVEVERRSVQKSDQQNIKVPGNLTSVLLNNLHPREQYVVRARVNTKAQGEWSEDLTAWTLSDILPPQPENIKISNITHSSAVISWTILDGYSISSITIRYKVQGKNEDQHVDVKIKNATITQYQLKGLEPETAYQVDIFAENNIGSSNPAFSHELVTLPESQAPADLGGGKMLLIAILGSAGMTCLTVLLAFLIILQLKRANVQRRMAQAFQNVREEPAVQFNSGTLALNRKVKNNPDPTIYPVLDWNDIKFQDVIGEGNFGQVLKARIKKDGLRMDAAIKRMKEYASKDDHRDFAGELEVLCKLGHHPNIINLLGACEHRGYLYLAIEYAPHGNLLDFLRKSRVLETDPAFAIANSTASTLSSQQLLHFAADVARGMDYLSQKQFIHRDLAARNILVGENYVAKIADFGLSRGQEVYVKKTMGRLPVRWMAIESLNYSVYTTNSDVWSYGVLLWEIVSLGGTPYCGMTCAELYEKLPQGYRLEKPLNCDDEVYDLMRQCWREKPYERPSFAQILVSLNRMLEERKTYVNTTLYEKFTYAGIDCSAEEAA
Put plainly: Kinase inhibition, Mobility Shift Assay/IMAP, TIE2. It is filed as biochemical. An outline of the steps:
(§1)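 Substrate conversion (phosphorylated vs non-phosphorylated) read by mobility shift on Caliper EZ Reader II and converted to % inhibition relative to no-enzyme and DMSO controls. IC50 fitted from % inhibition versus log compound concentration.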

A further data set has as its target T2, VEGFR1 (Homo sapiens, UniProt P17948).
T2 construct: purchased Invitrogen PR6731B
In words: Kinase inhibition, Mobility Shift Assay/IMAP, VEGFR1. It is filed as biochemical. The method, boiled down: as §1

For the next data set, the target named is T3, VEGFR3 (Homo sapiens, UniProt P35916).
T3 construct: purchased Invitrogen PV4129
T3 sequence (P35916 25-1363): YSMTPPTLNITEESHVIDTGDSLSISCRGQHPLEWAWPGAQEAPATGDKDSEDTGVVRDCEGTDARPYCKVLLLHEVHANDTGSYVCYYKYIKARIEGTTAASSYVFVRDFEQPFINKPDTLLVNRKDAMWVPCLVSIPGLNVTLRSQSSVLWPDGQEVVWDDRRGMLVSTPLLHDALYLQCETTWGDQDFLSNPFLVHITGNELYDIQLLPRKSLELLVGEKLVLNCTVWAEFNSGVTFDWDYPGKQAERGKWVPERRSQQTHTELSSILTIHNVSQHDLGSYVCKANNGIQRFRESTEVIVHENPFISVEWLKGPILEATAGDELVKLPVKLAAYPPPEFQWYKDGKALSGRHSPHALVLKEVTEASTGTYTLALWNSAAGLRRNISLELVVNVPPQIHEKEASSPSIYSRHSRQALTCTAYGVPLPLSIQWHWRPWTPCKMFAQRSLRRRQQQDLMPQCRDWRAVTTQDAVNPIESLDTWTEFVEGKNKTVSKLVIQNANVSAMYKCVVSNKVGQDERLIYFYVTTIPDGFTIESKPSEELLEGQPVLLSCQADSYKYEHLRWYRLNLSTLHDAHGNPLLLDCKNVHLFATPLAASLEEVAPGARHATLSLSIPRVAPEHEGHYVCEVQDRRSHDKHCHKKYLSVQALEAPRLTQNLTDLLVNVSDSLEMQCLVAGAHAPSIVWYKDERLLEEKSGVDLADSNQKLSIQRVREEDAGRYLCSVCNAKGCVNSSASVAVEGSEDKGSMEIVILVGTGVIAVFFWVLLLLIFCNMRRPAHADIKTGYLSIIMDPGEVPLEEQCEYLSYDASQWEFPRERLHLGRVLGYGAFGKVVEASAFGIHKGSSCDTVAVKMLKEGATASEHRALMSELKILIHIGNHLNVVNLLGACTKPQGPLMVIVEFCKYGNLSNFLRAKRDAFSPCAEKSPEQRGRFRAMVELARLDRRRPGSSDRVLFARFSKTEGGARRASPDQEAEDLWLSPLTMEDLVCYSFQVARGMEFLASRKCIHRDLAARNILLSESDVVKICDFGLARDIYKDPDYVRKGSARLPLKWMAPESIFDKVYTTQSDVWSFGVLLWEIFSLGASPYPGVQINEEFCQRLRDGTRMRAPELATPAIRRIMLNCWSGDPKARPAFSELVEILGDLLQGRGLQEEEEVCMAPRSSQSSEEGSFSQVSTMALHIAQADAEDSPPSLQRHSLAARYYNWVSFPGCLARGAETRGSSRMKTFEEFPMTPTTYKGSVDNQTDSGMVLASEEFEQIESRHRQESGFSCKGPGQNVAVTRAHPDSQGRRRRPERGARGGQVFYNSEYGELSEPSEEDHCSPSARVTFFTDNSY
Put plainly: Kinase inhibition, Mobility Shift Assay/IMAP, VEGFR3. It counts as biochemical. The method, boiled down:
as §1

In brackets after ≈: the same amount, converted by molar mass.

T2 sequence (P17948 27-1338): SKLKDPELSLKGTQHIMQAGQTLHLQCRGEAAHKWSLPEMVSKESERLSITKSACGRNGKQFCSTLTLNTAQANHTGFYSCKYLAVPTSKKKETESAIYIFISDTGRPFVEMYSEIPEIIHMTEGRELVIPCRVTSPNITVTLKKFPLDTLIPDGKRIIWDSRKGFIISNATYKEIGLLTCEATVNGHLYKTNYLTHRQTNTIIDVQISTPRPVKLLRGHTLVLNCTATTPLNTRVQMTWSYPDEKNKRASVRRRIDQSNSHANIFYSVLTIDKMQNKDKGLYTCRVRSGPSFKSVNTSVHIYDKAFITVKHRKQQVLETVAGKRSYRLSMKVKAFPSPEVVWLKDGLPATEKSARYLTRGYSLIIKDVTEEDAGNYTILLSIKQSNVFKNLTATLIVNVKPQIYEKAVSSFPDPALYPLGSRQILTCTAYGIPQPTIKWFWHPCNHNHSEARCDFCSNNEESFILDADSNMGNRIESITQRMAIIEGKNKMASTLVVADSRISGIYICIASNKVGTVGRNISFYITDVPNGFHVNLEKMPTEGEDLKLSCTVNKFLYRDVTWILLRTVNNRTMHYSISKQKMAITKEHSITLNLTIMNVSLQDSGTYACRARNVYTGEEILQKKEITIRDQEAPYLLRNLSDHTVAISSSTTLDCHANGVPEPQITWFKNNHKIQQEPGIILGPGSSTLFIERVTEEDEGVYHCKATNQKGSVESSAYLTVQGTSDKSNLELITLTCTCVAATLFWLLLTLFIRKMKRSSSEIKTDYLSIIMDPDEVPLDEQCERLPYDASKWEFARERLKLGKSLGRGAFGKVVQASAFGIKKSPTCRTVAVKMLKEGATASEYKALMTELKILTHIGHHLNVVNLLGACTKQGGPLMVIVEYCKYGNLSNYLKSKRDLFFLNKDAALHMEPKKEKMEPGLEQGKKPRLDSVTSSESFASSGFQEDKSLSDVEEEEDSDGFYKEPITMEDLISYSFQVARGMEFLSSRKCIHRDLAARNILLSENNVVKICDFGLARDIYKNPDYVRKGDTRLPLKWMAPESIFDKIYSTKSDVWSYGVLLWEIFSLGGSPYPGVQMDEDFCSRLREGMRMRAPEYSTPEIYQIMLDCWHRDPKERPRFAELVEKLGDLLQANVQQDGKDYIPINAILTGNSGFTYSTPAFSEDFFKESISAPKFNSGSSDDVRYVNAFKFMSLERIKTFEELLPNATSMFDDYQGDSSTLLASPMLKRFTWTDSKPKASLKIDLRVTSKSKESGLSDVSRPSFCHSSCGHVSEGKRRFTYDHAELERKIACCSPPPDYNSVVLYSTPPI

For the compound `CN1CCN(CCCNC(=O)Nc2snc(OCc3cc(C(=O)NC4CC4)ccc3F)c2C(N)=O)CC1` [Compound T118, 3-[[5-(cyclopropylcarbamoyl)-2-fluoro-phenyl]methoxy]-5-[3-(4-methylpiperazin-1-yl)propylcarbamoylamino]isothiazole-4-carboxamide], the fraction unbound at 2 h, 2 μM with melanin came to 0.111. Further, the concentration in solution in data set [1] (solubility at 8 h) was 2050 µg/mL (≈ 3.85 mM).

In the case of `NC(=O)c1c(OCc2cc(C(=O)NC3CC3)ccc2F)nsc1NC(=O)NCCCCN1CCCC1` [Compound T087, 3-[[5-(cyclopropylcarbamoyl)-2-fluoro-phenyl]methoxy]-5-(4-pyrrolidin-1-ylbutylcarbamoylamino)isothiazole-4-carboxamide], the fraction unbound at 2 h, 2 μM in the data set with melanin was determined as 0.0374. For the same compound, the results for the concentration for half-maximal inhibition (IC50) on TIE2, on VEGFR1 and on VEGFR3 were 1420 nM, 1.11 nM and 0.8 nM, respectively.

On to `NC(=O)c1c(OCc2c(F)ccc(C(=O)NC3CC3)c2F)nsc1NC(=O)NCCCCN1CCCC1` [Compound T124, 3-[[3-(cyclopropylcarbamoyl)-2,6-difluoro-phenyl]methoxy]-5-(4-pyrrolidin-1-ylbutylcarbamoylamino)isothiazole-4-carboxamide], for which, in the data set with melanin, the fraction unbound at 2 h, 2 μM worked out at 0.0707. For the same compound, on TIE2, the IC50 stood at 2890 nM. This compound also yielded a solubility at 8 h in data set [1] of 1950 µg/mL (≈ 3.63 mM).

Turning to `NC(=O)c1c(OCc2cc3c(cc2F)CCO3)nsc1NC(=O)NCCCCN1CC[C@@H](O)C1` [Compound T091, 3-[(5-fluoro-2,3-dihydrobenzofuran-6-yl)methoxy]-5-[4-[(3R)-3-hydroxypyrrolidin-1-yl]butylcarbamoylamino] isothiazole-4-carboxamide], in the data set on melanin, the fraction unbound at 2 h, 2 μM worked out at 0.0286. The results for the concentration for half-maximal inhibition (IC50) at VEGFR1 and on VEGFR3 were 5.87 nM and 6.72 nM, respectively.

Regarding `CN1CCN(CCCNC(=O)Nc2snc(OCc3cc4c(cc3F)CCO4)c2C(N)=O)CC1` [Compound T101, 3-[(5-fluoro-2,3-dihydrobenzofuran-6-yl)methoxy]-5-[3-(4-methylpiperazin-1-yl)propylcarbamoylamino] isothiazole-4-carboxamide], the fraction unbound at 2 h, 2 μM in the data set on melanin was found to be 0.0702. Further, the IC50 on TIE2 is 163 nM.

Consider `NC(=O)c1c(OCc2cc(C(=O)NC3CC3)ccc2Cl)nsc1NC(=O)NCCCCN1CCCC1` [Compound T123, 3-[[2-chloro-5-(cyclopropylcarbamoyl)phenyl]methoxy]-5-(4-pyrrolidin-1-ylbutylcarbamoylamino)isothiazole-4-carboxamide], for which the fraction unbound at 2 h, 2 μM with melanin was found to be 0.0298. The half-inhibitory concentration (IC50) on TIE2 was determined as 973 nM.

For the compound `NC(=O)c1c(OCc2cc(C(=O)NC3CC3)ccc2F)nsc1NC(=O)NCCCN1CC[C@H](F)C1` [Compound T116, 3-[[5-(cyclopropylcarbamoyl)-2-fluoro-phenyl]methoxy]-5-[3-[(3S)-3-fluoropyrrolidin-1-yl]propylcarbamoylamino]isothiazole-4-carboxamide], the fraction unbound at 2 h, 2 μM with melanin was 0.0376. The half-maximal inhibitory concentration (IC50) is 2360 nM on TIE2, 1.21 nM on VEGFR1 and 4.8 nM at VEGFR3. For the same compound, the solubility at 8 h in data set [1] amounted to 1090 µg/mL (≈ 2.08 mM).

One may read the solubility as the dissolved amount per volume that the medium holds. One may read the IC50 as the point on the concentration scale where inhibition reaches its midpoint.
